Active and inactive are the calls of the source. How the calls were made is not given here.
Test system: CCRIS mutagenicity, Ames/micronucleus/aberration tests
Assay: CCRIS mutagenicity studies
[1] = Test System: AMES SALMONELLA TYPHIMURIUM, Strain/Indicator: TA98, Metabolic Activation: NONE, Method: STANDARD PLATE
[2] = Test System: AMES SALMONELLA TYPHIMURIUM, Strain/Indicator: TA98, Metabolic Activation: RAT, LIVER, S-9, AROCLOR 1254, Method: STANDARD PLATE
[3] = Test System: AMES SALMONELLA TYPHIMURIUM, Strain/Indicator: TA100, Metabolic Activation: NONE, Method: STANDARD PLATE
[4] = Test System: AMES SALMONELLA TYPHIMURIUM, Strain/Indicator: TA100, Metabolic Activation: RAT, LIVER, S-9, AROCLOR 1254, Method: STANDARD PLATE
[5] = Test System: AMES SALMONELLA TYPHIMURIUM, Strain/Indicator: TA1535, Metabolic Activation: NONE, Method: STANDARD PLATE
[6] = Test System: AMES SALMONELLA TYPHIMURIUM, Strain/Indicator: TA1535, Metabolic Activation: RAT, LIVER, S-9, AROCLOR 1254, Method: STANDARD PLATE
[7] = Test System: AMES SALMONELLA TYPHIMURIUM, Strain/Indicator: TA1538, Metabolic Activation: NONE, Method: STANDARD PLATE
[8] = Test System: AMES SALMONELLA TYPHIMURIUM, Strain/Indicator: TA1538, Metabolic Activation: RAT, LIVER, S-9, AROCLOR 1254, Method: STANDARD PLATE
[9] = Test System: AMES SALMONELLA TYPHIMURIUM, Strain/Indicator: TA98, Metabolic Activation: NONE, Method: PREINCUBATION
[10] = Test System: AMES SALMONELLA TYPHIMURIUM, Strain/Indicator: TA100, Metabolic Activation: NONE, Method: PREINCUBATION

O=C(O)CCCc1c[nH]c2ccccc12
mutagenic call (Test System: AMES SALMONELLA TYPHIMURIUM, Strain/Indicator: TA97A, Metabolic Activation: NONE, Method: STANDARD PLATE): inactive; negative
mutagenic call (Test System: AMES SALMONELLA TYPHIMURIUM, Strain/Indicator: TA97A, Metabolic Activation: RAT, LIVER, S-9, AROCLOR 1254, Method: STANDARD PLATE): inactive; negative
mutagenic call [1]: inactive; negative
mutagenic call [2]: inactive; negative
mutagenic call [3]: inactive; negative
mutagenic call [4]: inactive; negative
mutagenic call [5]: inactive; negative
mutagenic call [6]: inactive; negative
mutagenic call (Test System: AMES SALMONELLA TYPHIMURIUM, Strain/Indicator: TA1537, Metabolic Activation: NONE, Method: STANDARD PLATE): inactive; negative
mutagenic call (Test System: AMES SALMONELLA TYPHIMURIUM, Strain/Indicator: TA1537, Metabolic Activation: RAT, LIVER, S-9, AROCLOR 1254, Method: STANDARD PLATE): inactive; negative
mutagenic call [7]: inactive; negative
mutagenic call [8]: inactive; negative

Cc1c(Br)c(Br)c(Br)c(Br)c1Br
mutagenic call (Test System: AMES SALMONELLA TYPHIMURIUM, Strain/Indicator: TA98, Metabolic Activation: HAMSTER, LIVER, S-9, AROCLOR 1254 (10%), Method: PREINCUBATION): inactive; negative
mutagenic call [9]: inactive; negative
mutagenic call (Test System: AMES SALMONELLA TYPHIMURIUM, Strain/Indicator: TA98, Metabolic Activation: RAT, LIVER, S-9, AROCLOR 1254 (10%), Method: PREINCUBATION): inactive; negative
mutagenic call (Test System: AMES SALMONELLA TYPHIMURIUM, Strain/Indicator: TA100, Metabolic Activation: HAMSTER, LIVER, S-9, AROCLOR 1254 (10%), Method: PREINCUBATION): inactive; negative
mutagenic call [10]: inactive; negative
mutagenic call (Test System: AMES SALMONELLA TYPHIMURIUM, Strain/Indicator: TA100, Metabolic Activation: RAT, LIVER, S-9, AROCLOR 1254 (10%), Method: PREINCUBATION): inactive; negative
mutagenic call (Test System: AMES SALMONELLA TYPHIMURIUM, Strain/Indicator: TA1535, Metabolic Activation: HAMSTER, LIVER, S-9, AROCLOR 1254 (10%), Method: PREINCUBATION): inactive; negative
mutagenic call (Test System: AMES SALMONELLA TYPHIMURIUM, Strain/Indicator: TA1535, Metabolic Activation: NONE, Method: PREINCUBATION): inactive; negative
mutagenic call (Test System: AMES SALMONELLA TYPHIMURIUM, Strain/Indicator: TA1535, Metabolic Activation: RAT, LIVER, S-9, AROCLOR 1254 (10%), Method: PREINCUBATION): inactive; negative
mutagenic call (Test System: AMES SALMONELLA TYPHIMURIUM, Strain/Indicator: TA1537, Metabolic Activation: HAMSTER, LIVER, S-9, AROCLOR 1254 (10%), Method: PREINCUBATION): inactive; negative
mutagenic call (Test System: AMES SALMONELLA TYPHIMURIUM, Strain/Indicator: TA1537, Metabolic Activation: NONE, Method: PREINCUBATION): inactive; negative
mutagenic call (Test System: AMES SALMONELLA TYPHIMURIUM, Strain/Indicator: TA1537, Metabolic Activation: RAT, LIVER, S-9, AROCLOR 1254 (10%), Method: PREINCUBATION): inactive; negative

O=[N+]([O-])c1ccc(F)c([N+](=O)[O-])c1
mutagenic call (Test System: AMES SALMONELLA TYPHIMURIUM, Strain/Indicator: TA98(1,8-DNP6), Metabolic Activation: NONE, Method: PREINCUBATION): active; positive
mutagenic call (Test System: AMES SALMONELLA TYPHIMURIUM, Strain/Indicator: TA98(NR), Metabolic Activation: NONE, Method: PREINCUBATION): active; positive
mutagenic call [9]: active; positive
mutagenic call (Test System: AMES SALMONELLA TYPHIMURIUM, Strain/Indicator: TA98, Metabolic Activation: RAT, LIVER, S-9, KANECHLOR 500, Method: PREINCUBATION): active; positive
mutagenic call (Test System: AMES SALMONELLA TYPHIMURIUM, Strain/Indicator: TA100(NR), Metabolic Activation: NONE, Method: PREINCUBATION): active; positive
mutagenic call (Test System: AMES SALMONELLA TYPHIMURIUM, Strain/Indicator: TA100/GSH-, Metabolic Activation: NONE, Method: PREINCUBATION): active; positive
mutagenic call [10]: active; positive
mutagenic call (Test System: AMES SALMONELLA TYPHIMURIUM, Strain/Indicator: TA100, Metabolic Activation: RAT, LIVER, S-9, KANECHLOR 500, Method: PREINCUBATION): active; positive

O=c1c2c(c3c(ccc4cc5c(ccc6ccccc65)[nH]c43)c1O)O2
mutagenic call (Test System: AMES SALMONELLA TYPHIMURIUM, Strain/Indicator: TA98, Metabolic Activation: RAT, LIVER, AROCLOR 1254, NADPH GENERATING SYSTEM, Method: STANDARD PLATE): active; positive
mutagenic call (Test System: AMES SALMONELLA TYPHIMURIUM, Strain/Indicator: TA100, Metabolic Activation: RAT, LIVER, AROCLOR 1254, NADPH GENERATING SYSTEM, Method: STANDARD PLATE): active; positive
mutagenic call (Test System: CHINESE HAMSTER V-79, Strain/Indicator: V-79/8-AZAGUANINE, Method: STANDARD PLATE): active; positive

COc1cc(-c2oc3cc(O)cc(O)c3c(=O)c2O)ccc1O
mutagenic call (Test System: AMES SALMONELLA TYPHIMURIUM, Strain/Indicator: TA97, Metabolic Activation: NONE, Method: STANDARD PLATE): inactive; negative
mutagenic call (Test System: AMES SALMONELLA TYPHIMURIUM, Strain/Indicator: TA97, Metabolic Activation: RAT, LIVER, S-9, AROCLOR 1254, Method: STANDARD PLATE): inactive; negative
mutagenic call [1]: inactive; negative
mutagenic call [2]: inactive; negative
mutagenic call [3]: inactive; negative
mutagenic call [4]: inactive; negative
mutagenic call (Test System: AMES SALMONELLA TYPHIMURIUM, Strain/Indicator: TA102, Metabolic Activation: NONE, Method: STANDARD PLATE): inactive; negative
mutagenic call (Test System: AMES SALMONELLA TYPHIMURIUM, Strain/Indicator: TA102, Metabolic Activation: RAT, LIVER, S-9, AROCLOR 1254, Method: STANDARD PLATE): inactive; negative
mutagenic call [5]: inactive; negative
mutagenic call [6]: inactive; negative
mutagenic call [7]: inactive; negative
mutagenic call [8]: inactive; negative

CC(=O)N(O)c1ccc(Oc2c(Cl)cc(Cl)cc2Cl)cc1
mutagenic call [3]: inactive; negative
mutagenic call (Test System: AMES SALMONELLA TYPHIMURIUM, Strain/Indicator: TA100, Metabolic Activation: RAT, LIVER, S-9, KANECLOR 500, Method: STANDARD PLATE): active; positive

Cc1cc2c(C)c3ccccc3nc2c2ccccc12
mutagenic call (Test System: AMES SALMONELLA TYPHIMURIUM, Strain/Indicator: TA97A, Metabolic Activation: NONE, Method: PREINCUBATION): active; positive
mutagenic call [9]: inactive; negative
mutagenic call [10]: active; positive
mutagenic call (Test System: AMES SALMONELLA TYPHIMURIUM, Strain/Indicator: TA102, Metabolic Activation: NONE, Method: PREINCUBATION): active; positive
